{"source": "patent US20180237713A1", "about": "“Ionic Liquid, Lubricant, and Magnetic Recording Medium” (priority 2015, published 2018)", "key": {"[1]": {"conditions": "in acetonitrile; cited from earlier work"}, "[2]": {"test": "Solubility test of ionic liquid in fluorine-based solvent VERTREL XF", "conditions": "for Solubility to fluorine-based solvent: VERTREL XF [CF3(CHF)2CF2CF3], 25° C., ultrasonic 5 minutes, left 1 day, visual", "method": "A solubility test was performed on the ionic liquid synthesized each of Examples and each of Comparative Examples using VERTREL XF [CF3(CHF)2CF2CF3] available from Du Pont-Mitsui Fluorochemicals Company, Ltd. as a fluorine-based solvent.\nThe ionic liquid was added to the predetermined mass of VERTREL XF.\nSpecifically, 0.5 parts by mass or 0.1 parts by mass of each ionic liquid was added to 100 parts by mass of VERTREL XF (25° C.).\nNote that, a case where the mixture was visually observed to be transparent, the ionic liquid was judged as being dissolved. A case where the mixture was not transparent or insoluble matter was observed, the ionic liquid was judged as not being dissolved (insoluble).\nThe ionic liquid was dissolved when 0.5 parts by mass of the ionic liquid was added.\nThe ionic liquid was not dissolved when 0.5 parts by mass of the ionic liquid was added, but the ionic liquid was dissolved when 0.1 parts by mass of the ionic liquid was added.\nThe ionic liquid was not dissolved both when 0.5 parts by mass of the ionic liquid was added and when 0.1 parts by mass of the ionic liquid was added."}, "[3]": {"test": "Thermal stability measurement (TG/DTA weight reduction temperature)", "conditions": "TG/DTA, air 200 mL/min, 10° C./min, 30° C. to 600° C."}}}
{"smiles": "O=S1(=O)NS(=O)(=O)C(F)(F)C(F)(F)C1(F)F", "note": "[hexafluorocyclopropane-1,3-bis(sulfonyl)imide]", "values": [{"measurement": "pKa of acid that is a source of the conjugate base", "setting": "[1]", "result": "−0.8"}]}
{"smiles": "O=S(=O)(C(S(=O)(=O)C(F)(F)F)S(=O)(=O)C(F)(F)F)C(F)(F)F", "note": "[tris(trifluoromethanesulfonyl)methide]", "values": [{"measurement": "pKa of acid that is a source of the conjugate base", "setting": "[1]", "result": "−3.7"}]}
{"smiles": "O=S(=O)(O)C(F)(F)C(F)(F)C(F)(F)C(F)(F)C(F)(F)C(F)(F)C(F)(F)C(F)(F)F", "note": "[heptadecafluorooctane sulfonic acid]", "values": [{"measurement": "pKa of acid that is a source of the conjugate base", "setting": "[1]", "result": 0.7}]}
{"smiles": "CCCCCCCCCCCCCCCCCCN1CCCC1.O=S(=O)(NS(=O)(=O)C(F)(F)C(F)(F)C(F)(F)C(F)(F)F)C(F)(F)C(F)(F)C(F)(F)C(F)(F)F", "note": "[Ex. 5A, bis(nonafluorobutanesulfonyl)imide-N-octadecylpyrrolidinium]", "values": [{"measurement": "Dissolved or not in fluorine-based solvent", "setting": "[2]; VERTREL XF", "result": "could be dissolved"}, {"measurement": "Solubility to fluorine-based solvent", "setting": "[2]", "result": "0.5% by mass or greater"}, {"measurement": "Solubility to fluorine-based solvent", "setting": "[2]; listed as Example 5A", "result": "≥ 0.5", "unit": "% by mass"}, {"measurement": "Weight reduction temperature 5%", "setting": "[3]", "result": 312.6, "unit": "°C"}, {"measurement": "Weight reduction temperature 10%", "setting": "[3]", "result": 334.4, "unit": "°C"}, {"measurement": "Weight reduction temperature 20%", "setting": "[3]", "result": 355.5, "unit": "°C"}]}
{"smiles": "F[B-](F)(F)F.[H+]", "note": "[tetrafluoroboric acid]", "values": [{"measurement": "pKa of acid that is a source of the conjugate base", "setting": "[1]", "result": 1.8}]}
{"smiles": "O=S(=O)(NS(=O)(=O)C(F)(F)C(F)(F)C(F)(F)C(F)(F)F)C(F)(F)C(F)(F)C(F)(F)C(F)(F)F", "note": "[bis(nonafluorobutanesulfonyl)imide]", "values": [{"measurement": "pKa of acid that is a source of the conjugate base", "setting": "[1]", "result": 0.0}]}
